Legend:
P-glycoprotein = P-glycoprotein (Homo sapiens, UniProt P08183); assay: Rhodamine 123 transport assay across HCT-8 cell monolayers; conditions: compound 10 μM, Rh123 15 μM, HCT-8 cells; for inhibition at 10 μM: human, HCT-8 cell monolayers in Transwell dishes, probe Rhodamine 123 (15 μM), % Inhibition of R123 Transport
Protocol: The human ileocecal adenocarcinoma cell line HCT-8 was grown in RPMI-1640 medium supplemented with 10% horse serum, 1 mM sodium pyruvate and 0.01 mg/ml gentamicin. All cells were maintained in a humidified atmosphere with 5% CO2 at 37° C.
Rhodamine 123 transport was examined as previously described (Hunter J. et al., Simmons, Br. J. Cancer, 64: 437444 (1991); Kim A. E. et al., J. Pharm. Exp. Ther., 286: 1439-1445 (1998)) using HCT-8 cells. Particularly, cells were grown in 6 well Corning Transwell dishes until a tight monolayer was formed. Rh123 was added at a final concentration of 15 μM to the basal or apical compartments and 200 μl samples were taken at the indicated times from the opposite chamber. Fluorescence of Rh123 in the media samples was measured using a fluorescence plate reader with an excitation wavelength of 485 nm and an emission wavelength of 530 nm.

[1] = tested on: MDR1-expressing NIH 3T3 cells; assay: Cytotoxicity (MTT) assay: modulation of drug cytotoxicity in multidrug resistant cells; conditions: compound 5 μM; 50 nM doxorubicin; 72 hours; MTT
Protocol: Cytotoxicity assays were performed with many of the compounds of Formula I to verify their usefulness as inhibitors of P-gp.
Parental NIH3T3 Swiss mouse embryo cell line was obtained from American Type Culture Collection and was grown in Dulbecco's Modified Eagles Medium supplemented with 4.5 g/L glucose, 10% fetal bovine serum, 2 mM L-glutamine, and 0.01 mg/ml gentamicin. […] All cells were maintained in a humidified atmosphere with 5% CO2 at 37° C.
Parental and MDR1-expressing NIH 3T3 cells were plated at a density of 2.5-3.0×10^3 cells/well in 96-well microtiter plates and were exposed to 50 nM of doxoriubicin, 7.5 nM vinblastine, 75 nM colchicine or 300 nM paclitaxel for 72 hours. Cell viability was determined with the colorimetric MTT (3-(4,5-dimethylthiazol-2-yl)-2,5-diphenyl tetrazolium) assay as previously described (Mosmann T., J. Immunol. Methods, 65: 55-63 (1983); Hansen M. B. et al., J. Immunol. Methods, 119: 203-210 (1989)) and the absorbance was measured at 570 nm.

P-glycoprotein, sequence (P08183 whole entry): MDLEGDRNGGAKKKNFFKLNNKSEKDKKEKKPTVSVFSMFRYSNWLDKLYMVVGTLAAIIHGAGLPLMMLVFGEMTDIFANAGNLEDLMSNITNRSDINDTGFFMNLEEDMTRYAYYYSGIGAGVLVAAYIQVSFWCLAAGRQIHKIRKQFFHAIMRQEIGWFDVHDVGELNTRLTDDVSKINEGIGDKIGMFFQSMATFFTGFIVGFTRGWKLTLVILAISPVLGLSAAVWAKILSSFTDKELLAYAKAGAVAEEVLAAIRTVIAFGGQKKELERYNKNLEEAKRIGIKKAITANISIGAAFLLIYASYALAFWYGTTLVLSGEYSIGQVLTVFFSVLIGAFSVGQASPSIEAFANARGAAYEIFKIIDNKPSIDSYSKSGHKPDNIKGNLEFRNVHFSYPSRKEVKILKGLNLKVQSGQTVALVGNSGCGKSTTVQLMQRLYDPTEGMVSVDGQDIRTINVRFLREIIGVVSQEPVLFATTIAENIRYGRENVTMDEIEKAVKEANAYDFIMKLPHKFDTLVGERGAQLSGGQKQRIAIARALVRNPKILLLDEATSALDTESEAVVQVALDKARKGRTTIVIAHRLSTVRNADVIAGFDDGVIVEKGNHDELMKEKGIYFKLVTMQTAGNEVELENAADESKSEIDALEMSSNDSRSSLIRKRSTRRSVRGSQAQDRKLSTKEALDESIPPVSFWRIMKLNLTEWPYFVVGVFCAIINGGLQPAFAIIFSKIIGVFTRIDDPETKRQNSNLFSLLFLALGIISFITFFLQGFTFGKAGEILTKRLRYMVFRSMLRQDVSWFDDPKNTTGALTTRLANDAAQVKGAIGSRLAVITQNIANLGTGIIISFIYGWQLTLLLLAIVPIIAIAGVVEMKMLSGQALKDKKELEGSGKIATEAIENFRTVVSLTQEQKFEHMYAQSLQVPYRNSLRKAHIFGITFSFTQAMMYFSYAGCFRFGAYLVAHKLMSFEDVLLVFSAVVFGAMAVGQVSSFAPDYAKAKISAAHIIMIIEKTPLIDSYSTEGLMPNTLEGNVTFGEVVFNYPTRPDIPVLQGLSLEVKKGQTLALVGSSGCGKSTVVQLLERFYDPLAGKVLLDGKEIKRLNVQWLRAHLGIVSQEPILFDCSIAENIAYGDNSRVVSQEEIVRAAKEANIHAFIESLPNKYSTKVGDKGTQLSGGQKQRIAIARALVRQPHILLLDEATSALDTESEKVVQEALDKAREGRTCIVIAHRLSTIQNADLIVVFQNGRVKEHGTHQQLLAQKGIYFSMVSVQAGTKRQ

SMILES	inhibition at 10 μM (P-glycoprotein) [%]	% Inhibition of R123 Transport (P-glycoprotein) [%]	Modulation of Drug Resistance (percentage increase in doxorubicin cytotoxicity in the presence of the compounds versus in their absence) [1] [%]
COCC1C(CCN2CCN(Cc3ccccc3)CC2)c2cc(OC)c(OC)cc2C1c1ccc(OC)c(OC)c1 (stereo not shown) [AV-178, 1-benzyl-4-{2-[3-(3,4-dimethoxyphenyl)-5,6-dimethoxy-2-methoxymethyl-indan-1-yl]-ethyl}-piperazine]	79		54.50
COc1ccc(C2c3cc(OC)c(OC)cc3C(CC(=O)N3CCN(C(=O)OCc4ccccc4)CC3)C2C(=O)N2CCN(C(=O)OCc3ccccc3)CC2)cc1OC (stereo not shown) [AV-179, 4-{2-[3-(3,4-dimethoxyphenyl)-5,6-dimethoxy-2-(piperazine-1-carboxylic acid benzyl ester)-indan-1-yl]-acetyl}-piperazine-1-carboxylic acid benzyl ester]		87.7	58.07
COc1ccc(C2c3cc(OC)c(OC)cc3C(CC(=O)N3CCN(C(=O)OC(C)(C)C)CC3)C2C(=O)N2CCN(C(=O)OC(C)(C)C)CC2)cc1OC (stereo not shown) [AV-180, 4-{2-[3-(3,4-dimethoxyphenyl)-5,6-dimethoxy-2-(piperazine-1-carboxylic acid t-butyl ester)-indan-1-yl]-acetyl}-piperazine-1-carboxylic acid t-butyl ester]		40.4	42.84
COc1ccc(N2CCN(CCC3c4cc(OC)c(OC)cc4C(c4ccc(OC)c(OC)c4)C3CN3CCN(c4ccc(OC)cc4)CC3)CC2)cc1 (stereo not shown) [AV-183, 2-{3-(3,4-dimethoxyphenyl)-5,6-dimethoxy-2-[4-(4-methoxy)-piperazin-1-yl-methyl]-indan-1-yl}-1-[4-(4-methoxyphenyl)-piperazin-1-yl]-ethane]		63.0	52.24
CCOc1ccccc1N1CCN(CCC2c3cc(OC)c(OC)cc3C(c3ccc(OC)c(OC)c3)C2CN2CCN(c3ccccc3OCC)CC2)CC1 (stereo not shown) [AV-184, 2-{3-(3,4-dimethoxyphenyl)-5,6-dimethoxy-2-[4-(2-ethoxyphenyl)-piperazin-1-yl-methyl]-indan-1-yl}-1-[4-(2-ethoxyphenyl)-piperazin-1-yl]-ethane]	53.7		50.58
COc1ccc(C2c3cc(OC)c(OC)cc3C(CCN3CCN(c4ccc(Cl)cc4)CC3)C2CN2CCN(c3ccc(Cl)cc3)CC2)cc1OC (stereo not shown) [AV-186, 2-{3-(3,4-dimethoxyphenyl)-5,6-dimethoxy-2-[4-(4-chlorophenyl)-piperazin-1-yl-methyl]-indan-1-yl}-1-[4-(4-chlorophenyl)-piperazin-1-yl]-ethane]	65.8		64.87
COc1ccc(C2c3cc(OC)c(OC)cc3C(CC(=O)N3CCN(c4ccccc4OC)CC3)C2C(=O)N2CCN(c3ccccc3OC)CC2)cc1OC (stereo not shown) [AV-188, 2-{3-(3,4-dimethoxyphenyl)-5,6-dimethoxy-2-[4-(2-methoxyphenyl)-piperazin-1-carbonyl]-indan-1-yl}-1-[4-(2-methoxy-phenyl)-1-yl]-ethanone]		87.6	75.39
CCCCC(CC)CN(CC(CC)CCCC)C(=O)CC1c2cc(OC)c(OC)cc2C(c2ccc(OC)c(OC)c2)C1C(=O)N(CC(CC)CCCC)CC(CC)CCCC (stereo not shown) [AV-192, 1-{[bis(2-ethylhexyl)carbamoyl]methyl}-3-(3,4-dimethoxyphenyl)-5,6-dimethoxy-indan-2-carboxylic acid bis(2-ethylhexyl) amide]	20.2		19.61
COCC1C(CCN2CCN(c3ccccc3)CC2)c2cc(OC)c(OC)cc2C1c1ccc(OC)c(OC)c1 (stereo not shown) [AV-198, 1-{-2-[3-(3,4-dimethoxyphenyl)-5,6-dimethoxy-2-methoxymethyl-indan-1-yl]-ethyl}-4-phenylpiperazine]	84.7		58.65

Further lines, with some results ahead:

inhibition at 10 μM (P-glycoprotein) [%]	% Inhibition of R123 Transport (P-glycoprotein) [%]	SMILES	Modulation of Drug Resistance (percentage increase in doxorubicin cytotoxicity in the presence of the compounds versus in their absence) [1] [%]
6		COc1ccc(C2c3cc(OC)c(OC)cc3C(CC(=O)N(C)C)C2C(=O)N(C)C)cc1OC (stereo not shown) [AV-181, 1-(3,4-dimethoxyphenyl)-3-dimethylcarbamoylmethyl-5,6-dimethoxy-indan-2-carboxylic acid dimethyl amide]	6.13
25		CCN(CC)C(=O)CC1c2cc(OC)c(OC)cc2C(c2ccc(OC)c(OC)c2)C1C(=O)N(CC)CC (stereo not shown) [AV-182, 1-(3,4-dimethoxyphenyl)-3-diethylcarbamoylmethyl-5,6-dimethoxy-indan-2-carboxylic acid diethyl amide]	23.87
25.1		COc1ccc(C2c3cc(OC)c(OC)cc3C(CC(=O)N3CCNCC3)C2C(=O)N2CCNCC2)cc1OC (stereo not shown) [AV-185, 2-[3-(3,4-dimethoxyphenyl)-5,6-dimethoxy-2-(piperazine-1-carbonyl)-indan-1-yl]-1-piperazin-1-yl-ethanone]	18.48
2.7		CCN1CCN(C(=O)CC2c3cc(OC)c(OC)cc3C(c3ccc(OC)c(OC)c3)C2C(=O)N2CCN(CC)CC2)CC1 (stereo not shown) [AV-187, 2-[3-(3,4-dimethoxyphenyl)-5,6-dimethoxy-2-(4-ethylpiperazine-1-carbonyl)-indan-1-yl]-1-(4-ethylpiperazin-1-yl)-ethanone]	23.50
60		CCCN(CCC)C(=O)CC1c2cc(OC)c(OC)cc2C(c2ccc(OC)c(OC)c2)C1C(=O)N(CCC)CCC (stereo not shown) [AV-189, 1-(3,4-dimethoxyphenyl)-3-dipropylcarbamoylmethyl-5,6-dimethoxy-indan-2-carboxylic acid dipropyl amide]	64.78
52.2		CCCCN(CCCC)C(=O)CC1c2cc(OC)c(OC)cc2C(c2ccc(OC)c(OC)c2)C1C(=O)N(CCCC)CCCC (stereo not shown) [AV-190, 1-(3,4-dimethoxyphenyl)-3-dibutylcarbamoylmethyl-5,6-dimethoxy-indan-2-carboxylic acid dibutyl amide]	65.35
64.9		COc1ccc(C2c3cc(OC)c(OC)cc3C(CC(=O)N(CC(C)C)CC(C)C)C2C(=O)N(CC(C)C)CC(C)C)cc1OC (stereo not shown) [AV-191, 1-[(diisobutylcarbamoyl)methyl]-3-(3,4-dimethoxyphenyl)-5,6-dimethoxy-indan-2-carboxylic acid diisobutylamide]	63.49
11.8		CCCCCCN(CCCCCC)C(=O)CC1c2cc(OC)c(OC)cc2C(c2ccc(OC)c(OC)c2)C1C(=O)N(CCCCCC)CCCCCC (stereo not shown) [AV-193, 1-(3,4-dimethoxyphenyl)-3-dihexylcarbamoylmethyl-5,6-dimethoxy-indan-2-carboxylic acid dihexyl amide]	25.20
